{"source": "patent US8802597B2", "about": "“Herbicidal pyrimidines” (E I du Pont de Nemours and Company, priority 2003, dated 2014)", "test_in_all_cases": "Test C pre/postemergence", "assay_type_in_all_cases": "in vivo", "key": {"[1]": {"tested_on": "johnsongrass (Sorghum halepense)", "conditions": "for Johnsongrass plant response rating: scale 0 to 100 (0 no effect, 100 complete control); for Plant response rating, Johnsongrass: scale 0 to 100", "in_short": "(§1)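 We sprayed seeded pots preemergence and 2–18 cm seedlings postemergence with test chemicals in a non-phytotoxic solvent mixture including surfactant. Greenhouse plants were visually compared with untreated controls at 12 to 14 days and scored 0 (no effect) to 100 (complete control).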"}, "[2]": {"tested_on": "Surinam grass (Brachiaria decumbens)", "conditions": "for Surinam Grass plant response rating: scale 0 to 100 (0 no effect, 100 complete control)", "in_short": "as §1"}, "[3]": {"tested_on": "giant foxtail (Setaria faberii)", "conditions": "for Foxtail, Giant plant response rating: scale 0 to 100 (0 no effect, 100 complete control)", "in_short": "as §1"}, "[4]": {"tested_on": "soybean (Glycine max)", "conditions": "for Soybean plant response rating: scale 0 to 100 (0 no effect, 100 complete control)", "in_short": "as §1"}, "[5]": {"tested_on": "pigweed (Amaranthus retroflexus)", "conditions": "for Pigweed plant response rating: scale 0 to 100 (0 no effect, 100 complete control)", "in_short": "as §1"}, "[6]": {"tested_on": "kochia (Kochia scoparia)", "conditions": "for Kochia plant response rating: scale 0 to 100 (0 no effect, 100 complete control)", "in_short": "as §1"}, "[7]": {"tested_on": "common (oilseed) sunflower (Helianthus annuus)", "conditions": "Preemergence", "in_short": "as §1"}, "[8]": {"tested_on": "goosegrass (Eleusine indica)", "conditions": "for Goosegrass plant response rating: scale 0 to 100 (0 no effect, 100 complete control)", "in_short": "as §1"}, "[9]": {"tested_on": "woolly cupgrass (Eriochloa villosa)", "conditions": "for Cupgrass, Woolly plant response rating: scale 0 to 100 (0 no effect, 100 complete control)", "in_short": "as §1"}, "[10]": {"tested_on": "bermudagrass (Cynodon dactylon)", "conditions": "for Bermudagrass plant response rating: scale 0 to 100 (0 no effect, 100 complete control)", "in_short": "as §1"}, "[11]": {"tested_on": "crabgrass (Digitaria sanguinalis)", "conditions": "Postemergence; for Crabgrass plant response rating: scale 0 to 100 (0 no effect, 100 complete control); for Plant response rating, Crabgrass: scale 0 to 100", "in_short": "as §1"}, "[12]": {"tested_on": "morningglory (Ipomoea coccinea)", "conditions": "for Morningglory plant response rating: scale 0 to 100 (0 no effect, 100 complete control)", "in_short": "as §1"}, "[13]": {"conditions": "Postemergence, 250 g ai/ha, scale 0 to 100"}, "[14]": {"conditions": "Postemergence, 500 g ai/ha, scale 0 to 100"}, "[15]": {"conditions": "Preemergence, 62 g ai/ha, scale 0 to 100, 0 no effect, 100 complete control"}, "[16]": {"conditions": "Preemergence, 125 g ai/ha, scale 0 to 100"}, "[17]": {"conditions": "Preemergence, 250 g ai/ha, scale 0 to 100"}, "[18]": {"conditions": "Preemergence, 500 g ai/ha, scale 0 to 100"}}}
{"smiles": "COC(=O)c1nc(C2CC2C)nc(N)c1Br", "note": "(stereo not shown) [Compound 28]", "values": [{"measurement": "Johnsongrass plant response rating", "setting": "[1]; Postemergence, 62 g ai/ha", "result": 0}, {"measurement": "Johnsongrass plant response rating", "setting": "[1]; Postemergence, 125 g ai/ha", "result": 0}, {"measurement": "Plant response rating, Johnsongrass", "setting": "[1]; Postemergence, 250 g ai/ha", "result": 0}, {"measurement": "Plant response rating, Johnsongrass", "setting": "[1]; Postemergence, 500 g ai/ha", "result": 0}, {"measurement": "Plant response rating, Johnsongrass", "setting": "[1]; Preemergence, 250 g ai/ha", "result": 0}, {"measurement": "Surinam Grass plant response rating", "setting": "[2]; Postemergence, 62 g ai/ha", "result": 0}, {"measurement": "Surinam Grass plant response rating", "setting": "[2]; Postemergence, 125 g ai/ha", "result": 0}, {"measurement": "Plant response rating, Surinam Grass", "setting": "[2]; [13]", "result": 0}, {"measurement": "Plant response rating, Surinam Grass", "setting": "[2]; [14]", "result": 0}, {"measurement": "Plant response rating, Surinam Grass", "setting": "[2]; [15]", "result": 0}, {"measurement": "Plant response rating, Surinam Grass", "setting": "[2]; [16]", "result": 0}, {"measurement": "Plant response rating, Surinam Grass", "setting": "[2]; [17]", "result": 0}, {"measurement": "Plant response rating, Surinam Grass", "setting": "[2]; [18]", "result": 0}, {"measurement": "Foxtail, Giant plant response rating", "setting": "[3]; Postemergence, 62 g ai/ha", "result": 0}, {"measurement": "Foxtail, Giant plant response rating", "setting": "[3]; Postemergence, 125 g ai/ha", "result": 0}, {"measurement": "Plant response rating, Foxtail, Giant", "setting": "[3]; [13]", "result": 0}, {"measurement": "Plant response rating, Foxtail, Giant", "setting": "[3]; [14]", "result": 15}, {"measurement": "Plant response rating, Foxtail, Giant", "setting": "[3]; [15]", "result": 0}, {"measurement": "Plant response rating, Foxtail, Giant", "setting": "[3]; [16]", "result": 0}, {"measurement": "Plant response rating, Foxtail, Giant", "setting": "[3]; [17]", "result": 0}, {"measurement": "Plant response rating, Foxtail, Giant", "setting": "[3]; [18]", "result": 0}, {"measurement": "Soybean plant response rating", "setting": "[4]; Postemergence, 62 g ai/ha", "result": 75}, {"measurement": "Soybean plant response rating", "setting": "[4]; Postemergence, 125 g ai/ha", "result": 85}, {"measurement": "Plant response rating, Soybean", "setting": "[4]; [13]", "result": 95}, {"measurement": "Plant response rating, Soybean", "setting": "[4]; [14]", "result": 95}, {"measurement": "Plant response rating, Soybean", "setting": "[4]; [15]", "result": 0}, {"measurement": "Plant response rating, Soybean", "setting": "[4]; [16]", "result": 45}, {"measurement": "Plant response rating, Soybean", "setting": "[4]; [17]", "result": 65}, {"measurement": "Plant response rating, Soybean", "setting": "[4]; [18]", "result": 90}, {"measurement": "Pigweed plant response rating", "setting": "[5]; Postemergence, 62 g ai/ha", "result": 30}, {"measurement": "Pigweed plant response rating", "setting": "[5]; Postemergence, 125 g ai/ha", "result": 35}, {"measurement": "Plant response rating, Pigweed", "setting": "[5]; [13]", "result": 60}, {"measurement": "Plant response rating, Pigweed", "setting": "[5]; [14]", "result": 75}, {"measurement": "Plant response rating, Pigweed", "setting": "[5]; [15]", "result": 80}, {"measurement": "Plant response rating, Pigweed", "setting": "[5]; [16]", "result": 95}, {"measurement": "Plant response rating, Pigweed", "setting": "[5]; [17]", "result": 100}, {"measurement": "Plant response rating, Pigweed", "setting": "[5]; [18]", "result": 100}, {"measurement": "Kochia plant response rating", "setting": "[6]; Postemergence, 62 g ai/ha", "result": 75}, {"measurement": "Kochia plant response rating", "setting": "[6]; Postemergence, 125 g ai/ha", "result": 85}, {"measurement": "Plant response rating, Kochia", "setting": "[6]; [13]", "result": 95}, {"measurement": "Plant response rating, Kochia", "setting": "[6]; [14]", "result": 95}, {"measurement": "Plant response rating, Kochia", "setting": "[6]; [15]", "result": 0}, {"measurement": "Plant response rating, Kochia", "setting": "[6]; [16]", "result": 80}, {"measurement": "Plant response rating, Kochia", "setting": "[6]; [17]", "result": 90}, {"measurement": "Plant response rating, Kochia", "setting": "[6]; [18]", "result": 100}, {"measurement": "Plant response rating, Sunflower", "setting": "[7]; 62 g ai/ha, scale 0 to 100, 0 no effect, 100 complete control", "result": 45}, {"measurement": "Plant response rating, Sunflower", "setting": "[7]; 125 g ai/ha, scale 0 to 100", "result": 50}, {"measurement": "Plant response rating, Sunflower", "setting": "[7]; 250 g ai/ha, scale 0 to 100", "result": 100}, {"measurement": "Plant response rating, Sunflower", "setting": "[7]; 500 g ai/ha, scale 0 to 100", "result": 100}, {"measurement": "Goosegrass plant response rating", "setting": "[8]; Postemergence, 62 g ai/ha", "result": 0}, {"measurement": "Goosegrass plant response rating", "setting": "[8]; Postemergence, 125 g ai/ha", "result": 0}, {"measurement": "Plant response rating, Goosegrass", "setting": "[8]; [13]", "result": 0}, {"measurement": "Plant response rating, Goosegrass", "setting": "[8]; [14]", "result": 15}, {"measurement": "Plant response rating, Goosegrass", "setting": "[8]; [15]", "result": 0}, {"measurement": "Plant response rating, Goosegrass", "setting": "[8]; [16]", "result": 0}, {"measurement": "Plant response rating, Goosegrass", "setting": "[8]; [17]", "result": 0}, {"measurement": "Plant response rating, Goosegrass", "setting": "[8]; [18]", "result": 20}, {"measurement": "Cupgrass, Woolly plant response rating", "setting": "[9]; Postemergence, 62 g ai/ha", "result": 0}, {"measurement": "Cupgrass, Woolly plant response rating", "setting": "[9]; Postemergence, 125 g ai/ha", "result": 0}, {"measurement": "Plant response rating, Cupgrass, Woolly", "setting": "[9]; [13]", "result": 0}, {"measurement": "Plant response rating, Cupgrass, Woolly", "setting": "[9]; [14]", "result": 0}, {"measurement": "Plant response rating, Cupgrass, Woolly", "setting": "[9]; [15]", "result": 0}, {"measurement": "Plant response rating, Cupgrass, Woolly", "setting": "[9]; [16]", "result": 0}, {"measurement": "Plant response rating, Cupgrass, Woolly", "setting": "[9]; [17]", "result": 0}, {"measurement": "Plant response rating, Cupgrass, Woolly", "setting": "[9]; [18]", "result": 0}, {"measurement": "Bermudagrass plant response rating", "setting": "[10]; Postemergence, 62 g ai/ha", "result": 0}, {"measurement": "Bermudagrass plant response rating", "setting": "[10]; Postemergence, 125 g ai/ha", "result": 0}, {"measurement": "Plant response rating, Bermudagrass", "setting": "[10]; [13]", "result": 0}, {"measurement": "Plant response rating, Bermudagrass", "setting": "[10]; [14]", "result": 0}, {"measurement": "Plant response rating, Bermudagrass", "setting": "[10]; [15]", "result": 0}, {"measurement": "Plant response rating, Bermudagrass", "setting": "[10]; [16]", "result": 20}, {"measurement": "Plant response rating, Bermudagrass", "setting": "[10]; [17]", "result": 30}, {"measurement": "Plant response rating, Bermudagrass", "setting": "[10]; [18]", "result": 35}, {"measurement": "Crabgrass plant response rating", "setting": "[11]; 62 g ai/ha", "result": 0}, {"measurement": "Crabgrass plant response rating", "setting": "[11]; 125 g ai/ha", "result": 0}, {"measurement": "Plant response rating, Crabgrass", "setting": "[11]; 250 g ai/ha", "result": 0}, {"measurement": "Plant response rating, Crabgrass", "setting": "[11]; 500 g ai/ha", "result": 20}, {"measurement": "Morningglory plant response rating", "setting": "[12]; Postemergence, 62 g ai/ha", "result": 80}, {"measurement": "Morningglory plant response rating", "setting": "[12]; Postemergence, 125 g ai/ha", "result": 95}, {"measurement": "Plant response rating, Morningglory", "setting": "[12]; [13]", "result": 95}, {"measurement": "Plant response rating, Morningglory", "setting": "[12]; [14]", "result": 95}, {"measurement": "Plant response rating, Morningglory", "setting": "[12]; [15]", "result": 100}, {"measurement": "Plant response rating, Morningglory", "setting": "[12]; [16]", "result": 100}, {"measurement": "Plant response rating, Morningglory", "setting": "[12]; [17]", "result": 100}, {"measurement": "Plant response rating, Morningglory", "setting": "[12]; [18]", "result": 100}]}
